We go through 18 compounds from patent publication US7592350B2, “Polycyclic compounds as potent alpha2-adrenoceptor antagonists” (Orion Corporation, priority 2002, dated 2009).

Usually Ki stands for the equilibrium dissociation constant of an inhibitor or competing ligand from its target.

Where two headings read alike, the source gives them in different places.

For assay [1], the system named is rats. Nature of the assay: Forced swimming test. Type of assay: in vivo. As to conditions: 10 micromol/kg, compared to vehicle. The protocol:
Forced swimming test (FST, i.e. Porsolt's test) is generally used in the pharmacological screening of new-antidepressants. In this test, antidepressants increase the animals' activity compared to non-treated controls. […] Therefore, it was tested, whether a selective alfa2C-antagonist would have antidepressant-like activity (e.g. activity-increasing property) in the FST. […] Also the positive control substances desipramine and fluoxetine (clinically effective antidepressant agents) were active.

Another assay deals with T1, alpha2B-adrenoceptor (Homo sapiens, UniProt P18089).
T1 sequence (P18089 1-450): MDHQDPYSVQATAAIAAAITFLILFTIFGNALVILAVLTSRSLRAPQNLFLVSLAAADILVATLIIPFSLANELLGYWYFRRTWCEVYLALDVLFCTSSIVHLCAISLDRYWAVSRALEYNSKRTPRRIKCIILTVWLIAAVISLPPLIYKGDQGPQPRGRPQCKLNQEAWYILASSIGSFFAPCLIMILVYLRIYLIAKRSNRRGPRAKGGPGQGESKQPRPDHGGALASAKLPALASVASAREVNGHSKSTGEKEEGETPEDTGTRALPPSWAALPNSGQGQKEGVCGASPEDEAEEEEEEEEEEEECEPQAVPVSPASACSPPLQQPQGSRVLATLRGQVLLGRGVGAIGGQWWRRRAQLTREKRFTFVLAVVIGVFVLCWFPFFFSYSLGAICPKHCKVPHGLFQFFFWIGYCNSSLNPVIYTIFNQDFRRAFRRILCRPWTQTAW
Nature of the assay: Radioligand binding to alpha2-adrenoceptors (alpha2B). As to conditions: calculated Ki from radioligand binding assays; read-out: Binding affinity (Ki) alpha2B. An excerpt:
Examples of the alpha2-adrenoceptor binding affinities of the compounds including in the present invention are shown in the Table 1. Many of these compouinds are high-affinity ligands for all the alpha2-receptors, but some of them display selectivity for the alpha2C-subtype.

In another assay the target is T2, alpha2A-adrenoceptor (Homo sapiens, UniProt P08913).
T2 sequence (P08913 1-465): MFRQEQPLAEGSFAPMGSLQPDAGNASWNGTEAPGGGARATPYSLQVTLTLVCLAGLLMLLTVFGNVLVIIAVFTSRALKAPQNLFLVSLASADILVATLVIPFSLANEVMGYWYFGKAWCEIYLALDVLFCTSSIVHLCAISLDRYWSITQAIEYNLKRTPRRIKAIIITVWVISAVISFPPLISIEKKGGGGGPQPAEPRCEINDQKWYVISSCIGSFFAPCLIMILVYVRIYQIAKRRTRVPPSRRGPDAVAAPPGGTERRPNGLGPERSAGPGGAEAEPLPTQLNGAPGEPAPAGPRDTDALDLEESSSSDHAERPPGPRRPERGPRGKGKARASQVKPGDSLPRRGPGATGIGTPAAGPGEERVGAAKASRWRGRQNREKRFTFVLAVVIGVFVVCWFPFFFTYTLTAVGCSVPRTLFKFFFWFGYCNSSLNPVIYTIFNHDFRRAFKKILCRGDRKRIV
Nature of the assay: Radioligand binding to alpha2-adrenoceptors (alpha2A). As to conditions: calculated Ki from radioligand binding assays; read-out: Binding affinity (Ki) alpha2A.

The target in the next assay is T3, alpha2C-adrenoceptor (Homo sapiens, UniProt P18825).
T3 sequence (P18825 1-462): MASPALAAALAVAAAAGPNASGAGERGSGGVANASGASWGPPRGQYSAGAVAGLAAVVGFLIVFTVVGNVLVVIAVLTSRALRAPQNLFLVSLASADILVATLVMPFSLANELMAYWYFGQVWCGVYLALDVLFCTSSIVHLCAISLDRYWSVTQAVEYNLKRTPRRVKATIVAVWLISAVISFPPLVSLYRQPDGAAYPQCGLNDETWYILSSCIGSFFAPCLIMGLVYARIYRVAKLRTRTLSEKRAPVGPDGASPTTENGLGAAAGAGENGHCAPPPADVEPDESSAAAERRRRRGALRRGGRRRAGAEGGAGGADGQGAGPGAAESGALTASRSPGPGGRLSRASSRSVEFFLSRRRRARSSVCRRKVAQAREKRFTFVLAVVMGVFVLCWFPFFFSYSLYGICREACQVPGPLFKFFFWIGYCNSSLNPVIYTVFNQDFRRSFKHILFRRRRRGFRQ
Nature of the assay: Radioligand binding to alpha2-adrenoceptors (alpha2C).

The next assay relates to mice. Nature of the assay: Antagonism of alpha2-agonist (dexmedetomidine)-induced sedation. As to conditions: dexmedetomidine 50 nmol/kg s.c., antagonist pre-treatment. It is filed as in vivo. The protocol:
(veh=vehicle). (***p<0.001, compared to Dex+vehicle)
One of the prominent effects of non-selective alpha2-agonists in rodents is their ability to cause profound sedation. This effect, measured as locomotor inhibition by the alpha2-agonist dexmedetomidine was not modified in mice with genetically altered alpha2C-expression (Scheinin, M. et al., Life Sci 68(19-20) (2001) 2277-85). […] This assumption was tested in experiment, where dexmedetomidine was administered to mice pre-treated with the alpha2C-antagonists compound K or compound L, or the subtype non-selective antagonist atipamezole (Haapalinna, A. et al., Naunyn-Schmiedeberg's Arch. Pharmacol. 356 (1997) 570-582).

In assay [2] the test system is rats. Nature of the assay: Prepulse inhibition of the startle reflex. Type of assay: in vivo. The protocol: FIGS. 4a and 4b show the effect of compounds K and L on the startle reflex and its prepulse inhibition in rats. (Veh=vehicle). Asterisks as in FIG. 1; comparisons were performed between PCP (phencyclidine)+vehicle and PCP+compounds K and L.
FIGS. 5a and 5b show the effect of the non-selective antagonist atiparnezole (ati) on the startle reflex and its prepulse inhibition in rats in the prescence of phencyclidine (PCP); (veh=vehicle). Asterisks as in FIG. 1, compared to the vehicle+PCP -group.
Prepulse-inhibition (PPI) of a startle response refers to the reduction in the startle response caused by a low intensity non-startling stimulus (the prepulse) which is presented shortly before the startle stimulus. PPI can be used as an operational measure of sensorimotor gating and appears to be present in all mammals, including rats and humans (Swerdlow, N. R. et al., The archives of general psychiatry 51 (1994) 139-154). Normally finctioning PPI can be disrupted by psychostimulants, such as d-amphetamine or phencyclidine (PCP), and reversed by clinically effective antipsychotics.
This hypothesis was tested with compounds K and L alone and against PCP disruption of the PPI. […]

The mark [3] stands for this setting: calculated Ki from radioligand binding assays, read-out: Binding affinity (Ki) alpha2C.

As to `CNCCC(Oc1ccc(C(F)(F)F)cc1)c1ccccc1` (stereo not shown) [fluoxetine], in the assay on rats [1], the “Activity in the forced swimming test” value is recorded as “increased activity”.

`CCC(C)C1(O)CCCN2CCc3c([nH]c4ccccc34)C21` (stereo not shown) [Compound C, 1-s-Butyl-1,2,3,4,6,7,12,12bβ-octahydro-indolo[2,3-a]quinolizin-1-ol]: the figures for the inhibitory constant (Ki) on alpha2B-adrenoceptor, at alpha2A-adrenoceptor and at alpha2C-adrenoceptor (setting [3]) were 580 nM, 710 nM and 87 nM, respectively.

With `CC(C)C1(O)CCCN2CCc3c([nH]c4ccccc34)C21` (stereo not drawn) [Compound A, 1α-Isopropyl-1,2,3,4,6,7,12,12bβ-octahydroindolo[2,3-a]quinolizin-1-ol], the Ki is 330 nM at alpha2B-adrenoceptor, 480 nM on alpha2A-adrenoceptor and 61 nM on alpha2C-adrenoceptor (setting [3]).

Take `CCC1(O)C(C)CCN2CCc3c([nH]c4ccccc34)C21` (stereo not drawn) [Compound B, 1α-Ethyl-2α-methyl-1,2,3,4,6,7,12,12bβ-octahydro-indolo[2,3-a]quinoulzin-1-ol]: the inhibitory constant (Ki) is 160 nM at alpha2B-adrenoceptor, 130 nM on alpha2A-adrenoceptor and 25 nM on alpha2C-adrenoceptor (setting [3]).

Regarding `c1ccc2c3c([nH]c2c1)C1CCCCCN1CC3` (stereo not shown) [Compound E, 2,3,4,5,7,8,13,13b-Octahydro-1H-azepino[1′,2′1,2]pyrido[3,4-b]indole], the inhibition constant (Ki) on alpha2B-adrenoceptor was 110 nM; on alpha2A-adrenoceptor it was 30 nM; on alpha2C-adrenoceptor (setting [3]) it was 26 nM.

As for `CC[C@@H]1CCCN2CCc3c([nH]c4ccccc34)[C@@H]12` (relative stereo) [Compound J, 1β-ethyl-1,2,3,4,6,7,12,12bβ-octabydroindolo[2,3-a]quinolizine], the values for the inhibition constant (Ki) at alpha2B-adrenoceptor, on alpha2A-adrenoceptor and at alpha2C-adrenoceptor (setting [3]) were 520 nM, 210 nM and 75 nM, respectively.

For the compound `CNCCCN1c2ccccc2CCc2ccccc21` [desipramine], the “Activity in the forced swimming test” value with rats [1] was “increased activity”.

Consider `OC12CCCCC1CCN1CCc3c([nH]c4ccccc34)C12` (stereo not shown) [Compound F, 2,3,4,4aβ,5,6,7,8,13,13bβ-Decahydro-1H-6a,13-diaza-indeno[1,2-c]phenanthren-13cβ-ol], for which the figures for the Ki on alpha2A-adrenoceptor and at alpha2C-adrenoceptor (setting [3]) were 514 nM and 70 nM, respectively.

Turning to `CC(C)(C)[C@@H]1CCN2CCc3c([nH]c4ccccc34)[C@@H]2C1` (relative stereo) [Compound Q, 2β-tert-butyl-1,2,3,4,6,7,12,12bα-octahydro-indolo[2,3-a]quinolizine], the inhibition constant (Ki) was 40 nM on alpha2B-adrenoceptor, 27 nM at alpha2A-adrenoceptor and 6.4 nM at alpha2C-adrenoceptor (setting [3]).

On to `C[C@@]1(O)CCCN2CCc3c([nH]c4ccccc34)[C@H]21` (relative stereo) [Compound H, 1α-Methyl-1,2,3,4,6,7,12,12bβ-octahydroindolo[2,3-a]quinolizin-1-ol], for which the Ki on alpha2B-adrenoceptor was 45 nM; at alpha2A-adrenoceptor, 280 nM; at alpha2C-adrenoceptor (setting [3]), 23 nM.

With `C[C@@H]1CCCN2CCc3c(oc4ccccc34)[C@@H]12` (relative stereo) [Compound G, 1-Methyl-1α,3,4,6,11bβ-hexahydro-2H-11-oxa4a-aza-benzo[a]fluorene], the values for the inhibition constant (Ki) at alpha2A-adrenoceptor and on alpha2C-adrenoceptor (setting [3]) were 96 nM and 22 nM, respectively.

Regarding `COC1CCN2CCc3c([nH]c4ccccc34)C2C1` (stereo not drawn) [Compound D, 2α-Methoxy-1,2,3,4,6,7,12,12bα-octahydro-indolo[2,3-a]quinolizine], the Ki is 81 nM at alpha2B-adrenoceptor, 29 nM at alpha2A-adrenoceptor and 17 nM at alpha2C-adrenoceptor (setting [3]).

As to `CCC1(c2cnc[nH]2)Cc2ccccc2C1` [atipamezole], the “Activity in the forced swimming test” value in the assay with rats [1] is given as “did not possess antidepressant-like effect”. Besides, in the assay with mice, the “Antagonism of dexmedetomidine-induced sedation (locomotor inhibition)” value is recorded as “effectively antagonised the effect of dexmedetomidine”. For the same compound, the “Effect on prepulse inhibition (PPI) disrupted by PCP” value in the assay with rats [2] (antagonist 20 min, PCP 10 min before measurement) is on record as “did not enhance PPI”. The “Effect on startle reflex per se (startle without prepulses)” value with rats [2] (in the presence of PCP) was “increased the startle reflex per se”.

For the compound `OC[C@H]1CCCN2CCc3c([nH]c4ccccc34)[C@H]12` (relative stereo) [Compound O, (1β,2,3,4,6,7,12,12bα-Octahydroindolo’[2,3-a]quinolizin-1-yl)-methanol], the Ki is 270 nM at alpha2B-adrenoceptor, 380 nM on alpha2A-adrenoceptor and 110 nM on alpha2C-adrenoceptor (setting [3]).

For `CCC1=C(C)CC2c3[nH]c4ccccc4c3CCN2C1` (stereo not shown) [Compound N, 3-Ethyl-2-methyl-1,4,6,7,12,12b-hexahydro-indolo[2,3-a]quinolizine], the Ki on alpha2B-adrenoceptor is 1110 nM; on alpha2A-adrenoceptor, 130 nM; on alpha2C-adrenoceptor (setting [3]) it was 46 nM.

Regarding `C1=CCN2CCc3c([nH]c4ccccc34)C2C1` (stereo not shown) [Compound I, 1,4,6,7,12,12b-Hexahdroindolo[2,3-a]quinolizine], the Ki on alpha2B-adrenoceptor was 460 nM; on alpha2A-adrenoceptor, 150 nM; at alpha2C-adrenoceptor it was 85 nM.

`CC(O)C1CCCN2CCc3c([nH]c4ccccc34)C12` (stereo not drawn) [Compound P, 1-(1α2,3,4,6,7,12 12bβ-Octahydroindolo[2,3-a]quinolizin-1-yl)-ethanol]: the results for the Ki at alpha2B-adrenoceptor, at alpha2A-adrenoceptor and on alpha2C-adrenoceptor (setting [3]) were 410 nM, 290 nM and 90 nM, respectively.

Consider `CC[C@]1(CO)CCCN2CCc3c([nH]c4ccccc34)[C@H]21` (relative stereo) [Compound M, (1β-Ethyl-1,2,3,4,6,7,12,12bβ-octahydroindolo[2,3-a]quinolizin-1-yl)-methanol], for which the values for the inhibitory constant (Ki) on alpha2B-adrenoceptor, on alpha2A-adrenoceptor and at alpha2C-adrenoceptor (setting [3]) were 470 nM, 440 nM and 110 nM, respectively.
